The values that follow come from patent US5665754A, “Substituted pyrrolidines” (Glaxo Wellcome Inc., priority 1993, dated 1997).

Molecules are shown by their SMILES.

This assay concerns TNFα secretion from murine elicited peritoneal macrophages. As to the kind of experiment: Assay for inhibition of LPS-induced TNFα production. Format: cell-based, mouse. To be noted: preliminary experiments. The source says: In order to assess the ability of a compound to reduce TNFα secretion in elicited mouse peritoneal macrophages, the following protocol was employed. […] (See Scales, W. E., S. W. Chensuc, I. Otterness and S. L. Kunkel, 1989, Regulation of monokine gene expression: Prostaglandin E2 suppresses tumor necrosis factor but not interleukin-1a or b-mRNA and cell-associated bioactivity, J. Leukocytc Biology 45:416-421.). (See also Renz, H., J-H. Gong, A. Schmidt, M. Nain and Diethard Gemsa, 1988, Release of tumor necrosis factor-a from macrophages. Enhancement and suppression are dose-dependently regulated by prostaglandin E2 and cyclic nucleotides, J. Immunol. 1 41:2388-2393). […] (See Noel, L. S., M. Verghese, K. M. Connelly, L. J. Sekut and S. A. Stimpson, 1992, Type IV-specific phosphodiesterase (PDE) inhibitors suppress murine TNFα expression in vitro and in vivo-(abstract)--6th International Conference, Inflammation Research Association). TNFα secretion from murine elicited peritoneal macrophages was used as a readout for a compound's ability to raise cAMP, and/or inhibit phosphodiesterase within a cell.
Mice (female C3H mice, 15-20 gm body weight) were injected intraperitoneally with 2 mL of 5 mM sodium periodate solution. […] TNFα protein in the supernatant fluids was measured using a commercially available enzyme-linked immunosorbant assay (ELISA) (Genzyme).

Turning to `COc1ccc(C2CNC(=O)C2)cc1OC1CCCC1` (stereo not shown) [rolipram], the “LPS induced TNFα secretion from murine macrophages” value was “inhibited”.
